Reference: patent publication US10961309B2, “Reducing systemic regulatory T cell levels or activity for treatment of disease and injury of the CNS” (Yeda Research and Development Co. Ltd, priority 2014, dated 2021)
Entries after “also recorded” stand apart in the source; their conditions may differ.

Legend:
Type in all cases: in vivo, mouse
[1] = tested on: splenocytes (CD4+Foxp3+ Tregs, CD4+ IFN-γ+ T cells); assay: Flow cytometry of splenocytes
Experimental: Mice were transcardially perfused with PBS, and tissues were treated as previously described (Baruch et al, 2013). Brains were dissected and the different brain regions were removed under a dissecting microscope (Stemi DV4; Zeiss) in PBS, and tissues were dissociated using the gentleMACS™ dissociator (Miltenyi Biotec). Choroid plexus tissues were isolated from the lateral, third and fourth ventricles of the brain, incubated at 37° C. for 45 min in PBS (with Ca^2+/Mg^2+) containing 400 U/ml collagenase type IV (Worthington Biochemical Corporation), and then manually homogenized by pipetting. Spleens were mashed with the plunger of a syringe and treated with ACK (ammonium chloride potassium) lysing buffer to remove erythrocytes. In all cases, samples were stained according to the manufacturers' protocols. All samples were filtered through a 70 μm nylon mesh, and blocked with anti-Fc CD16/32 (1:100; BD Biosciences). For intracellular staining of IFN-γ, the cells were incubated with […] (10 ng/ml; Sigma-Aldrich) and ionomycin (250 ng/ml; Sigma-Aldrich) for 6 h, and Brefeldin-A (10 μg/ml; Sigma-Aldrich) was added for the last 4 h. Intracellular labeling of cytokines was done with BD Cytofix/Cytoperm™ Plus fixation/permeabilization kit (cat. no. 555028). For Treg staining, an eBioscience FoxP3 staining buffer set (cat. no. 00-5523-00) was used. The following fluorochrome-labeled monoclonal antibodies were purchased from BD Pharmingen, BioLegend, R&D Systems, or eBiosciences, and used according to the manufacturers' protocols: PE or Alexa Fluor 450-conjugated anti-CD4; PE-conjugated anti-CD25; PerCP-Cy5.5-conjugated anti-CD45; FITC-conjugated anti-TCRβ; APC-conjugated anti-IFN-γ; APC-conjugated anti-FoxP3; Brilliant-violet-conjugated anti-CD45. Cells were analyzed on an LSRII cytometer (BD Biosciences) using FlowJo software. In each experiment, relevant negative control groups, positive controls, and single stained samples for each tissue were used to identify the populations of interest and to exclude other populations.

5XFAD AD-Tg mice = assay: Radial arm water maze (RAWM)
Experimental: The radial-arm water maze (RAWM) was used to test spatial learning and memory, as was previously described in detail (Alamed et al, 2006). Briefly, six stainless steel inserts were placed in the tank, forming six swim arms radiating from an open central area. The escape platform was located at the end of one arm (the goal arm), 1.5 cm below the water surface, in a pool 1.1 m in diameter. The water temperature was kept between 21-22° C. Water was made opaque with milk powder. Within the testing room, only distal visual shape and object cues were available to the mice to aid in location of the submerged platform. The goal arm location remained constant for a given mouse. On day 1, mice were trained for 15 trials (spaced over 3 h), with trials alternating between a visible and hidden platform, and the last 4 trails with hidden platform only. On day 2, mice were trained for 15 trials with the hidden platform. Entry into an incorrect arm, or failure to select an arm within 15 sec, was scored as an error. Spatial learning and memory were measured by counting the number of arm entry errors or the escape latency of the mice on each trial. Training data were analyzed as the mean errors or escape latency, for training blocks of three consecutive trials.
At 10 months of age, 5XFAD Alzheimer's' disease (AD) transgenic (Tg) mice were injected i.p. with either 250 ug of anti-PD1 (RMP1-14; #BE0146; Bioxcell Lifesciences Pvt. LTD.) or control IgG (IgG2a; #BE0089; Bioxcell Lifesciences Pvt. LTD.) antibodies, on day 1 and day 4 of the experiment, and were examined 3 weeks after (schematically depicted in FIG. 11A) for their cognitive performance by radial arm water maze (RAWM) spatial learning and memory task, as was previously described in detail (Alamed et al, 2006). Briefly, on day 1 of the RAWM task, mice were trained for 15 trials (spaced over 3 h), with trials alternating between a visible and hidden platform, and the last 4 trails with hidden platform only. On day 2, mice were trained for 15 trials with the hidden platform. Entry into an incorrect arm, or failure to select an arm within 15 sec, was scored as an error. Spatial learning and memory were measured by counting the number of arm entry errors or the escape latency of the mice on each trial. Age matched untreated WT and AD-Tg mice were used as controls.

[2] = tested on: choroid plexus leukocyte trafficking molecules (icam1, cxcl10, ccl2) and ifn-γ; assay: Choroid plexus (CP) mRNA expression by RT-qPCR
Experimental: Total RNA of the hippocampal dentate gyrus (DG) was extracted with TRI Reagent (Molecular Research Center) and purified from the lysates using an RNeasy Kit (Qiagen). Total RNA of the choroid plexus was extracted using an RNA MicroPrep Kit (Zymo Research). mRNA (1 μg) was converted into cDNA using a High Capacity cDNA Reverse Transcription Kit (Applied Biosystems). The expression of specific mRNAs was assayed using fluorescence-based quantitative real-time PCR (RT-qPCR). RT-qPCR reactions were performed using Fast-SYBR PCR Master Mix (Applied Biosystems). Quantification reactions were performed in triplicate for each sample using the standard curve method. Peptidylprolyl isomerase A (ppia) was chosen as a reference (housekeeping) gene. The amplification cycles were 95° C. for 5 s, 60° C. for 20 s, and 72° C. for 15 s. […] For ifn-γ and ppia gene analysis, the cDNA was pre-amplified in 14 PCR cycles with non-random PCR primers, thereby increasing the sensitivity of the subsequent real-time PCR analysis, according to the manufacturer's protocol (PreAmp Master Mix Kit; Applied Biosystems). mRNA expression was determined using TaqMan RT-qPCR, according to the manufacturer's instructions (Applied Biosystems). All RT-qPCR reactions were performed and analyzed using StepOne software V2.2.2 (Applied Biosystems). […]

Compound: CC1=C(/C=C/C(C)=C/C=C/C(C)=C/C(=O)O)C(C)(C)CCC1 [ATRA, All-trans retinoic acid]
- splenocyte frequencies of Foxp3+CD25+ Tregs ([1]; ATRA 8 mg/kg/d i.p. every other day 1 week vs vehicle (DMSO), 5-month 5XFAD AD-Tg mice): significantly higher; also recorded: elevation
- cognitive performance (spatial memory) in the RAWM (5XFAD AD-Tg mice; ATRA-treated vs vehicle-treated AD-Tg mice, 3 weeks after treatment): worsening of the spatial memory deficits

Compound: Diphtheria toxin [DTx]
- CP mRNA expression of leukocyte trafficking molecules (icam1, cxcl10, ccl2) ([2]; AD-Tg/DTR+ vs DTx-treated AD-Tg/DTR− littermates, 1 day after last DTx injection): elevated mRNA expression

Compound: Glatiramer acetate [GA]
- CP epithelial expression of leukocyte trafficking molecules (icam1, cxcl10, ccl2) ([2]; weekly-GA, AD-Tg mice, end of 1st or 4th week): upregulated epithelial expression of leukocyte trafficking molecules
- splenocyte Foxp3+ Treg levels ([1]; weekly-GA, 5XFAD AD-Tg mice, end of 1st week of regimen): reduced
- cognitive performance (spatial memory) by the RAWM task (5XFAD AD-Tg mice; daily-GA 100 μg s.c. for 1 month, 7-month old 5XFAD AD-Tg mice): either no beneficial effect on spatial memory, or a tendency towards a worsening effect
- duration of improved cognitive performance after the treatment (5XFAD AD-Tg mice; weekly-GA, 5XFAD AD-Tg mice): up to 2 months
- cognitive performance by the RAWM task (5XFAD AD-Tg mice; weekly-GA, 7-month old 5XFAD AD-Tg mice): beneficial effect
